Measured values: patent publication US20220090124A1, “HUMANIZED VIPR2 COPY NUMBER VARIANT TRANSGENIC MOUSE MODEL FOR ANTIPSYCHOTIC DRUG AND GENE THERAPY DISCOVERY FOR SCHIZOPHRENIA” (Board of Supervisors of Louisiana State University and …, priority 2019, published 2022)

Legend:
[1] = target: T1, human VIPR2 receptor (Homo sapiens, UniProt P41587); test: receptor block and downstream signaling in cell line expressing the human VIPR2 receptor; format: cell-based; details: cell line expressing the human VIPR2 receptor (cell line of VIPR2 CNV)
T1 construct: expressed in transfected cells; host or cells: cell line of VPIR2 CNV (not further described)
T1 sequence (P41587 24-438): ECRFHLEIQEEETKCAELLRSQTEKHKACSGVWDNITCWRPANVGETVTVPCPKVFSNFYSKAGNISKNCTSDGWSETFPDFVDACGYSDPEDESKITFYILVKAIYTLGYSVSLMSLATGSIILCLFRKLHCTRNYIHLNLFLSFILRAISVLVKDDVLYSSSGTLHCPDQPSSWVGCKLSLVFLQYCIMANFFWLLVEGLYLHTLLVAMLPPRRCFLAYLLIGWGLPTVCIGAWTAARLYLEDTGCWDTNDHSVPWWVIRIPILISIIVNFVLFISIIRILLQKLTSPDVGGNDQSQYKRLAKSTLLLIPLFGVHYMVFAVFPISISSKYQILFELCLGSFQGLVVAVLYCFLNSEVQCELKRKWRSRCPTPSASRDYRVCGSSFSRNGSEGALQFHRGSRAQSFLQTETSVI
Excerpt: Turning finally to FIG. 57, a small molecule VIPR2 antagonist, (2R,4S)-2-benzyl-4-hydroxy-N-((1S,2R)-2-hydroxy-2,3-dihydro-1H-inden-1-yl)-5-(4-nitrophenylsulfonamido) pentanamide, is shown. Another object of the present invention is to use the VIRP2 BAC Schizophrenia mouse model to identify VIPR2 receptor antagonist as an antipsychotic drug targeting cognitive and social deficits, or as disease-modifying therapy to prevent or slow/stop disease progression. Currently, the majority of VIPR2 agonist or antagonist are peptides. However, two properties of the peptide hormone are problematic from the perspective of therapeutic applications. First, they have a short half-life as a result of its rapid proteolysis. Second, most of these peptides are not specific and activate three broadly distributed receptors, VIPR1, VIPR2, and PAC1. A high-throughput screen on human VPAC2 receptor using a cell-based cAMP assay has identified a single confirmed antagonist hit from a 1.67 million-compound collection. This compound is the first specific small molecule antagonist for human VIPR2 receptor. The full name of the compound is (2R,4S)-2-benzyl-4-hydroxy-N-((1S,2R)-2-hydroxy-2,3-dihydro-1H-inden-1-yl)-5-(4-nitrophenylsulfonamido) pentanamide (FIG. 57). […] The inventors experimented with this hVIPR2 antagonist in the cell line of VPIR2 CNV. […]

[2] = target: T2, human VPAC2 receptor (Homo sapiens, UniProt P41587); details: high-throughput screen of 1.67 million-compound collection, cell-based cAMP assay; cited from earlier work
T2 sequence (P41587 24-438): T1 sequence (P41587 24-438)

[3] = target: T3, hVPAC1 (Homo sapiens, UniProt P32241); details: selectivity; cited from earlier work
T3 sequence (P32241 31-457): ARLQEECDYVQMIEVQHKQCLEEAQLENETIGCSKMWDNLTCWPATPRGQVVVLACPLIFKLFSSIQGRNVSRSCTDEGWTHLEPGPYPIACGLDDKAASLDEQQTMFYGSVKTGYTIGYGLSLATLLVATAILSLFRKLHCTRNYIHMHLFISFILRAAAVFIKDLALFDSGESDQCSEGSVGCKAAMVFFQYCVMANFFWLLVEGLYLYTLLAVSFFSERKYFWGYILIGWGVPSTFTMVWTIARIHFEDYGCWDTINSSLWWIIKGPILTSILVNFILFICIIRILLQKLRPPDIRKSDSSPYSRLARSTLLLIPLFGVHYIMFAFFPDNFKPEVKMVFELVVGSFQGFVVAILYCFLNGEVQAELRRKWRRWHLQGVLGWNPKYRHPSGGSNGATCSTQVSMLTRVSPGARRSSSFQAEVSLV

[4] = target: T4, hPAC1 (Homo sapiens, UniProt P41586); details: selectivity; cited from earlier work
T4 sequence (P41586 21-468): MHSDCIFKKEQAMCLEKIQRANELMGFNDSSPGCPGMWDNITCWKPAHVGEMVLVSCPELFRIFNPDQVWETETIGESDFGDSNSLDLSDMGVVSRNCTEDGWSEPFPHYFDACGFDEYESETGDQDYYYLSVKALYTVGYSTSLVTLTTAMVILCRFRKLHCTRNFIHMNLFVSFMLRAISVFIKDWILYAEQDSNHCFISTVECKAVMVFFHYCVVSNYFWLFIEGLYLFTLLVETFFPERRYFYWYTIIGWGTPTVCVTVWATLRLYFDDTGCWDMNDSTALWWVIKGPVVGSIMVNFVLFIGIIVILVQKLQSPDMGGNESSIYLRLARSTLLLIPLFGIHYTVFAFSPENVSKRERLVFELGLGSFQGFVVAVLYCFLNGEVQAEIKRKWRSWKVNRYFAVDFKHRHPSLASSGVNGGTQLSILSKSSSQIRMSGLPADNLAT

[5] = target: T5, mouse Vipr2 receptor (Mus musculus, UniProt P41588); details: species specificity; cited from earlier work
T5 sequence (P41588 23-437): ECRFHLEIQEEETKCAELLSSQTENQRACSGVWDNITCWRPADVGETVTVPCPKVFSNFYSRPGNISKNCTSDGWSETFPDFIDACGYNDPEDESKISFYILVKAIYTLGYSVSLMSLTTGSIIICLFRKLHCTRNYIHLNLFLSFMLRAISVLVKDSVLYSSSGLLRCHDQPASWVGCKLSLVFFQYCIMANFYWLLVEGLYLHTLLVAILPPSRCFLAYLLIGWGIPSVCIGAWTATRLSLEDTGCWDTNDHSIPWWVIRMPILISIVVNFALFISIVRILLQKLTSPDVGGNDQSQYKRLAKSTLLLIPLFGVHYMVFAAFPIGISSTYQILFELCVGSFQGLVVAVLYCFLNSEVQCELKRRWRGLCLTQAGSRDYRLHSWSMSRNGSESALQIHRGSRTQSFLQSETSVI

SMILES: O=C(N[C@H]1c2ccccc2C[C@H]1O)[C@H](Cc1ccccc1)C[C@H](O)CNS(=O)(=O)c1ccc([N+](=O)[O-])cc1 [(2R,4S)-2-benzyl-4-hydroxy-N-((1S,2R)-2-hydroxy-2,3-dihydro-1H-inden-1-yl)-5-(4-nitrophenylsulfonamido) pentanamide]
- block of VIPR2 receptor and downstream signaling [1]: blocks the VIPR2 receptor and the downstream signaling
- antagonist activity on human VIPR2 receptor [2]: selective human VIPR2 antagonist
- antagonism of hVPAC1 [3]: does not antagonize
- antagonism of hPAC1 [4]: does not antagonize
- activity on the mouse Vipr2 receptor [5]: completely lacks activity
